The values below come from patent publication US8987449B2, “Medicine for treating ischemic brain injury and its sequelae, and preparation method thereof” (Haimin Lei, priority 2011, dated 2015).

Experiment [1] concerns rat cortex neurons after cerebral ischemia. Kind of experiment: Brain histopathologic morphology after cerebral ischemia (HE staining of cortex). The settings on record: MCAO rats, compared with model group. Type of experiment: in vivo. The procedure: The same as effect example 4
10% chloral hydrate (0.35 g/kg) was injected into the abdominal cavity of a rat to anesthetize thereof. The thoracic cavity was cut to expose the heart fully. It was intubated through left ventricle. Firstly, it was washed with 37[…] saline solution 300 ml and perfused with pre-cooled 4% paraformaldehyde phosphate buffer solution (pH 7.2). When the rat was adequately fixed and the body was stiff, the head was cut and the brain was taken rapidly. And the brain was dipped into 4% paraformaldehyde solution and fixed for 24 h. Next, it was put into tissue vacuum hydroextractor, was dehydrated with gradient ethanol, made transparent with xylene, and imbedded into paraffin. 3-5 examples were taken for each group. And then 3 mm-4 mm tissue block from chiasma opticum towards caudal end at coronal position was taken, wherein the thickness of brain slice was 3 μm.
The rat cortex damage after cerebral ischemia and the effect of the medicine were observed through HE staining.

For experiment [2], the system named is rat primary cortical neurons. The experiment in a line: Proliferation of primary neuronal cells by MTT and morphology observation. It is filed as cell-based. The settings on record: for MTT(A540), 24 h after the administration: normal neurons, control 0.7567 ± 0.1109. The protocol: SD pregnant rats: pregnant for 16-18 d, certificate number: SCXK (Jing) 2006-0009, provided by BeiJing Vital River Laboratories.
LQC-T4 (prepared by the method of example 5), the purity was ≧98%, determined by high performance liquid chromatography (HPLC), which met the requirement of the experiment. The powder was carefully sealed and preserved at 4° C. The prepared LQC-T4 was dissolved using dimethyl sulfoxide and made into […] storing liquid for use.
Referring to the document [HongQingtao, TangYipeng, Neurons of cerebral cortex of newborn rats in in vitro primary culture, Chinese Journal of Neuroanatomy, 1994, 10(3):259-262], the pregnant 16-18 d SD rat was executed by dislocation. The fetal rat was taken out in an aseptic environment, the meninges and blood steak were stripped, the cortex was separated and cut into 1 mm^3 tissue block (all carried out on ice). The tissue block was digested at 37[…] with 0.1% pancreatic enzyme-0.02% EDTA for 20 min. Digesting was stopped using DMEM containing fetal calf serum and the number of the cells was adjusted to 5×10^5 cells ml^−1. The resultant cells were inoculated into a 96 well plate treated by 0.001% polylysine and the plate was put in a 37° C. 5% CO2 incubation box to be cultured. The cultivation liquid was changed (totally) after 48 h and add adenine arabinoside was added (final concentration is 5 μM) to inhibit the excessive proliferation of non-neurons. The cultivation liquid was changed after 48 h with fresh cultivation liquid and culture was continued. And the cultivation liquid was changed every 3 days afterward.
The cultivation liquid was sucked away on the eighth day of neuron culture. DMEM culture-medium containing 0.15% DMSO was added to the blank group, while 60 μM, 30 μM, 15 μM LQC-T4, 60 μM tetramethylpyrazine and 60 μM vanillic acid were respectively added to the administration group. Ten parallel wells were set as a group. And they were put into a 37° C., 5% CO2 incubation box to continue culturing for 24 h.
5 mg/ml MTT 20 μl was added to each well at the time of 4 h before the experiment ended and the cultivation liquid was sucked away. DMSO 200 μl was added to each well. When the purple particles were completely dissolved, the enzyme-linked immune assay was used to measure the optical density at 540 nm.
The SAS 8.2 statistical software was used to carry out the one-way ANOVA variance analysis and the difference among the groups were compared by t-test.

In experiment [3] the test system is chicken chorioallantoic membrane (CAM). The experiment in a line: Effect of LQC-T on CAM angiogenesis (CAM method, vessel count). Type of experiment: in vivo. The settings on record: 20 μg/chicken embryo. The protocol:
Embryonated chicken eggs of Lohmann of German, egg weight 50-60 g (embryo experiment center of Chinese Agriculture University)
LQC-T (1-6) (prepared by the methods of examples 2-7), wherein the purity was ≧98%, determined by high performance liquid chromatography (HPLC), meeting the requirements of the experiment. The powder was carefully sealed and preserved at 4° C.
Aseptic gelatin sponge, which was made into a wafer having a diameter of 5 mm by a hole-puncher in advance, was used as sample carrier. The prepared LQC-T series compounds were added according to 20 μg/chicken embryo in an aseptic environment. The 0.9% physiological saline was used in a blank group. The samples were air-dried in an aseptic environment.
A hatching egg after disinfection was put into a 37° C. incubation box with air sac upward until the seventh day of incubation. The egg embryo was disinfected using alcohol at a super clean bench, and then a small hole was drilled at the top of the egg embryo using a dental drill, and the nearby egg shell and shell membrane were removed carefully to form the opening with the size of about 1.2 cm×1.2 cm. After spotting the location for applying the sample, the air sac was broken with injection needle at the interface between air sac and the yolk and then 1-2 drops of aseptic physiological saline was injected so that the air sac membrane was separated from CAM membrane. Then the upper air sac membrane was slightly removed with a nipper to expose the lower CAM membrane.
The medicine-containing carrier was softly put by a nipper at the locations of CAM and yolk cyst membrane with fewer vessels, the opening was then sealed with aseptic transparent tape and incubation was continued for another 72 h.
After the incubation, the transparent tape blocking the chicken embryo air sac was removed with a nipper. The liquid of equal-volumetrically mixed methanol/acetone 1-2 ml was added and fixed at room temperature for 10 min. The CAM membrane was carefully removed and put it onto a slide. Then it was observed and a photograph was taken. The effect of the compounds on angiogenesis was evaluated by the count analytic method using the numbers of great vessels, medium vessels and small vessels arranged radially around by the carrier.
All the data were statistically analyzed using SPSS11.0 software pack. The difference between the administration group and the blank group was given through one-way variance analysis. P<0.05 had statistical significance.

Structures are written as SMILES.

As for `COc1cc(C(=O)OCc2nc(C)c(C)nc2C)ccc1OCc1nc(C)c(C)nc1C` [LQC-T4, (3,5,6-trimethylpyrazine-2-yl)methyl 3-methoxy-4-((3,5,6-trimethylpyrazine-2-yl)methoxy) benzoate], the “remaining of the complete neuron of the rat cortex after cerebral ischemia (HE staining)” value in experiment [1] (60 mg/kg) is “a larger amount of neurons which were distinct and complete in structure”; in experiment [1] (120 mg/kg), “a larger amount of neurons which were distinct and complete in structure”. Further, the “MTT(A540), 24 h after the administration” value is 0.9175 ± 0.2300 in experiment [2] (15 μM), 0.9114 ± 0.1599 in experiment [2] (30 μM) and 0.8106 ± 0.2415 in experiment [2] (60 μM). Also, in experiment [2] (24 h after the administration, P>0.05, result in words), the “promoting effect on the growth of normal neurons” value is “greater than that of the tetramethylpyrazine group and the vanillic acid group”. In addition, the “morphology observation of primary neuronal cells” value in experiment [2] (phase contrast microscope, vs normal group) is “more prosperous in growth and their protrusions formed a network”. Also, the “small vessel angiogenesis of CAM model, Medicine group (X ± S)” value in experiment [3] (72 h incubation, number of small vessels, blank group 8.67 ± 1.03) is on record as 14.4 ± 2.16. In experiment [3] (result in words), the “effect on growth of new (small) vessels compared with the blank group” value is “significant promoting effect”.

`Cc1nc(C)c(C)nc1C` [TMP, tetramethylpyrazine, reference compound]: the “remaining of the complete neuron of the rat cortex after cerebral ischemia (HE staining)” value in experiment [1] (TMP group) is given as “a lower level of damage compared with the model group”. For the same molecule, in experiment [2] (60 μM), the “MTT(A540), 24 h after the administration” value stood at 0.8710 ± 0.1350.
